ChEMBL document CHEMBL6182854, “Design, synthesis and biological evaluation of WEE1 degraders via HSP90-mediated targeting chimeras for target therapy of acute myeloid leukemia” (Eur J Med Chem, 2025)
Active and inactive are the calls of the source. The rule behind the calls is not given here.

Legend:
MV4-11 [1] = assay: Antiproliferative activity against human MV4-11 cells assessed as cell viability incubated for 72 hrs by CCK-8 assay; format: functional, cell-based; settings: MV4-11, 72 h
MV4-11 [2] = assay: Induction of cell cycle arrest in human MV4-11 cells assessed as accumulation of cells at G2/M phase at 100 nM incubated for 72 hrs by PI staining based flow cytometry; format: functional
[3] = tested on: Primary acute myeloid leukemic cell; assay: Antitumor activity against patient derived human Primary acute myeloid leukemic cell xenografted in female NOD/SCID mouse assessed as decrease in huCD45+ cells in bone marrow at 5 mg/kg administered via tail vein and measured after 4 weeks in presence of STA9090 by flow cytometric analysis; format: functional, organism-based
[4] = tested on: Primary acute myeloid leukemic cell; assay: Antitumor activity against patient derived human Primary acute myeloid leukemic cell xenografted in female NOD/SCID mouse assessed as decrease in huCD45+ cells in bone marrow at 3 mg/kg administered via tail vein in presence of STA9090 and measured after 4 weeks by flow cytometric analysis; format: functional, organism-based
[5] = tested on: Primary acute myeloid leukemic cell; assay: Antitumor activity against patient derived human Primary acute myeloid leukemic cell xenografted in female NOD/SCID mouse assessed as decrease in huCD45+ cells in bone marrow at 5 mg/kg administered via tail vein and measured after 4 weeks by flow cytometric analysis; format: functional, organism-based
MV4-11 [6] = assay: Upregulation of WEE1 mRNA expression in human MV4-11 cells incubated for 12 hrs by qRT-PCR analysis; format: functional, cell-based; settings: dose 1-10 µM
MV4-11 [7] = assay: HEMTAC activity against HSP90/WEE1 in human MV4-11 cells assessed as induction of WEE1 degradation at 10 uM incubated for 12 hrs by Western blotting analysis; format: cell-based
[8] = target: Heat shock protein HSP 90-alpha (Homo sapiens, UniProt P07900); assay: Inhibition of N-terminal HSP90alpha (unknown origin) ATPase activity incubated for 3 hrs by fluorescence polarization assay
MV4-11 [9] = assay: HEMTAC activity at HSP90/WEE1 in human MV4-11 cells assessed as induction of WEE1 degradation at 0.1 uM incubated for 12 hrs by Western blotting analysis; format: cell-based
MV4-11 [10] = assay: HEMTAC activity against HSP90/AKT in human MV4-11 cells assessed as induction of AKT degradation at 0.1 uM incubated for 12 hrs by Western blotting analysis; format: cell-based
[11] = Toxicity in female NOD/SCID mouse xenografted with patient derived human Primary acute myeloid leukemic cell assessed as lung damage at 10 mg/kg administered via tail vein by H and E staining based optical microscopic analysis; format: organism-based; settings: in vivo, iv
[12] = Toxicity in female NOD/SCID mouse xenografted with patient derived human Primary acute myeloid leukemic cell assessed as lung damage at 3 mg/kg administered via tail vein by H and E staining based optical microscopic analysis; format: organism-based; settings: in vivo, iv
[13] = Antitumor activity against patient derived human Primary acute myeloid leukemic cell xenografted in female NOD/SCID mouse assessed as decrease in huCD45+ cells in bone marrow at 10 mg/kg administered via tail vein and measured after 4 weeks by flow cytometric analysis relative to control; format: functional; design: scale not given: the % may be the effect or the level left
[14] = tested on: Primary acute myeloid leukemic cell; assay: Antitumor activity against patient derived human Primary acute myeloid leukemic cell xenografted in female NOD/SCID mouse assessed as reduction in splenomegaly at 10 mg/kg administered via tail vein and measured after 4 weeks; format: functional, organism-based
[15] = Toxicity in female NOD/SCID mouse xenografted with patient derived human Primary acute myeloid leukemic cell assessed as increase in body weight at 10 mg/kg administered via tail vein and measured after 4 weeks; format: organism-based; settings: in vivo, iv, 672 h
[16] = Toxicity in female NOD/SCID mouse xenografted with patient derived human Primary acute myeloid leukemic cell assessed as heart damage at 10 mg/kg administered via tail vein by H and E staining based optical microscopic analysis; format: organism-based; settings: in vivo, iv
[17] = Cytotoxicity against human PBMC cells assessed as reduction in cell viability up to 1000 nM incubated for 72 hrs by CCK-8 assay; format: toxicity, cell-based; settings: 1 µM
[18] = Toxicity in female NOD/SCID mouse xenografted with patient derived human Primary acute myeloid leukemic cell assessed as liver damage at 10 mg/kg administered via tail vein by H and E staining based optical microscopic analysis; format: organism-based; settings: in vivo, iv
[19] = Toxicity in male BALB/C mouse assessed as myelosuppression by measuring platelet level at 10 mg/kg administered via tail vein and measured on day 3; format: organism-based; settings: in vivo, iv, 72 h, time 3 day
[20] = Antiproliferative activity against patient derived human Primary acute myeloid leukemic cell assessed as inhibition of cell growth incubated for 72 hrs by CCK-8 assay; format: functional, cell-based
MV4-11 [21] = assay: Induction of cell cycle arrest in human MV4-11 cells assessed as accumulation of cells at G2/M phase incubated for 72 hrs by PI staining based flow cytometry; format: functional; settings: dose 30.0 µM
MV4-11 [22] = assay: Induction of cell cycle arrest in human MV4-11 cells assessed as accumulation of cells at G2/M phase at 30 nM incubated for 72 hrs by PI staining based flow cytometry; format: functional
[23] = target: Cyclin-dependent kinase 1 (Homo sapiens) (UniProt P06493); assay: Inhibition of CDK1 phosphorylation in human MV4-11 cells; format: cell-based
Sequence of Cyclin-dependent kinase 1 (Homo sapiens) (P06493 whole entry, looked up): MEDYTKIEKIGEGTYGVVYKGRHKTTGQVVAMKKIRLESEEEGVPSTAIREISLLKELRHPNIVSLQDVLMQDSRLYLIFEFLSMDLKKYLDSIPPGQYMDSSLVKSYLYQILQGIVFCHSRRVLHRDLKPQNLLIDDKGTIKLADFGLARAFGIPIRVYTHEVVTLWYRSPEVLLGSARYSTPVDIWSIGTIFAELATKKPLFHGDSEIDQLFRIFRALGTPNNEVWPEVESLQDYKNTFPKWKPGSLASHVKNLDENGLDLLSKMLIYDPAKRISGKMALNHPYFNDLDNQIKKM

[24] = Toxicity in female NOD/SCID mouse xenografted with patient derived human Primary acute myeloid leukemic cell assessed as spleen damage at 10 mg/kg administered via tail vein by H and E staining based optical microscopic analysis; format: organism-based; settings: in vivo, iv
[25] = tested on: Primary acute myeloid leukemic cell; assay: Antitumor activity against patient derived human Primary acute myeloid leukemic cell xenografted in female NOD/SCID mouse assessed as decrease in huCD45+ cells in spleen at 10 mg/kg administered via tail vein and measured after 4 weeks by flow cytometric analysis; format: functional, organism-based

C=CCn1c(=O)c2cnc(Nc3ccc(N4CCN(C)CC4)cc3)nc2n1-c1cccc(C(C)(C)O)n1 [ADAVOSERTIB]
IC50 (MV4-11 [1]): 0.0675 µM | Activity (MV4-11 [2]): Active | Activity [3]: inactive | Activity [4]: inactive | Activity [5]: inactive | Activity (MV4-11 [6]): inactive | Activity (MV4-11 [7]): inactive

C=CCn1c(=O)c2cnc(Nc3ccc(N4CCN(CCCCNC(=O)c5noc(-c6cc(C(C)C)c(O)cc6O)c5-c5ccc(CN6CCOCC6)cc5)CC4)cc3)nc2n1-c1cccc(C(C)(C)O)n1
IC50 (MV4-11 [1]): 0.045 µM | Activity (MV4-11 [7]): Active

C=CCn1c(=O)c2cnc(Nc3ccc(N4CCN(CCCCCNC(=O)CN5CCN(Cc6ccc(-n7c(C(=O)NCC)nnc7-c7cc(C(C)C)c(O)cc7O)cc6)CC5)CC4)cc3)nc2n1-c1cccc(C(C)(C)O)n1
IC50 (MV4-11 [1]): 0.00966 µM | Activity (MV4-11 [7]): Active

CC(C)c1cc(C(=O)N2Cc3ccc(CN4CCN(C)CC4)cc3C2)c(O)cc1O [ONALESPIB]
IC50 (MV4-11 [1]): 0.00613 µM | IC50 [8]: 0.00989 µM

C=CCn1c(=O)c2cnc(Nc3ccc(N4CCN(CCCCCNC(=O)CCC(=O)Nc5ccc6c(c5)CCN6C(=O)c5cc(C(C)C)c(O)cc5O)CC4)cc3)nc2n1-c1cccc(C(C)(C)O)n1
IC50 (MV4-11 [1]): 0.0384 µM | Activity (MV4-11 [7]): Active

C=CCn1c(=O)c2cnc(Nc3ccc(N4CCN(CCCNC(=O)c5noc(-c6cc(C(C)C)c(O)cc6O)c5-c5ccc(CN6CCOCC6)cc5)CC4)cc3)nc2n1-c1cccc(C(C)(C)O)n1
Activity (MV4-11 [9]): Active | Activity (MV4-11 [10]): Minimal_effect | Activity [11]: Non-toxic | IC50 (MV4-11 [1]): 0.00803 µM | Activity [12]: Non-toxic | Activity [13]: >70% | Activity [14]: Active | Activity [15]: Non-toxic | Activity [16]: Non-toxic | Activity [17]: Non-toxic | Activity [18]: Non-toxic | Activity [19]: Non-toxic | IC50 [20]: 0.0405 µM | Activity (MV4-11 [21]): Dose-dependent-effect | IC50 [8]: 0.0139 µM | Activity (MV4-11 [22]): Active | inhibition [23]: Active | Activity [24]: Non-toxic | Activity (MV4-11 [6]): Active | Activity [25]: Active | Activity (MV4-11 [7]): Active

C=CCn1c(=O)c2cnc(Nc3ccc(N4CCN(CCNC(=O)CN5CCN(Cc6ccc(-n7c(C(=O)NCC)nnc7-c7cc(C(C)C)c(O)cc7O)cc6)CC5)CC4)cc3)nc2n1-c1cccc(C(C)(C)O)n1
IC50 (MV4-11 [1]): 0.0131 µM | Activity (MV4-11 [7]): Active
